Measurements: the supplement of paper PMC4932681

Columns and labels:
[1] = test system: T-47D Tam2; experiment: relative IC50 (midpoint of fitted logistic curve, plateau may be below 50% inhibition; CellTiter-Glo viability); higher = less potent; details: 4-OH-tamoxifen in medium 1 µM; 72 h
Outline: (§1)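 CellTiter-Glo viability was the readout, taken on a PHERAstar and normalised to vehicle-only and positive controls. It was measured after breast cancer cell lines and their resistant derivatives spent 72 h at 37 °C in 384-well plates containing library drugs at five concentrations spanning a 10 000-fold range, with 1 μM of the selecting drug in the medium of resistant lines. From logistic dose–response fits in the Breeze pipeline came drug sensitivity score, relative IC50 (curve midpoint) and top-dose inhibition.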

[2] = test system: T-47D; experiment: as above; details: 72 h
Outline: as §1

[3] = test system: BT-474 Tam2; experiment: as above; details: 4-OH-tamoxifen in medium 1 µM; 72 h
Outline: as §1

[4] = test system: MCF-7; experiment: as above; details: 72 h
Outline: as §1

[5] = test system: BT-474; experiment: as above; details: 72 h
Outline: as §1

[6] = test system: BT-474 Tam1; experiment: as above; details: 4-OH-tamoxifen in medium 1 µM; 72 h
Outline: as §1

[7] = test system: ZR-75-1 Tam1; experiment: as above; details: 4-OH-tamoxifen in medium 1 µM; 72 h
Outline: as §1

[8] = test system: ZR-75-1; experiment: as above; details: 72 h
Outline: as §1

[9] = test system: ZR-75-1 Tam2; experiment: as above; details: 4-OH-tamoxifen in medium 1 µM; 72 h
Outline: as §1

[10] = test system: T-47D Tam1; experiment: as above; details: 4-OH-tamoxifen in medium 1 µM; 72 h
Outline: as §1

[11] = test system: MCF-7 Tam1; experiment: drug sensitivity score (DSS) (DSS (dimensionless)); higher = more sensitive; extreme values may be limits of the assay; details: 4-OH-tamoxifen in medium 1 µM; 72 h
Outline: as §1

[12] = test system: T-47D Tam2; experiment: as above; details: 4-OH-tamoxifen in medium 1 µM; 72 h
Outline: as §1

[13] = test system: T-47D; experiment: as above; details: 72 h
Outline: as §1

[14] = test system: BT-474 Tam2; experiment: as above; details: 4-OH-tamoxifen in medium 1 µM; 72 h
Outline: as §1

[15] = test system: MCF-7; experiment: as above; details: 72 h
Outline: as §1

[16] = test system: BT-474; experiment: as above; details: 72 h
Outline: as §1

[17] = test system: BT-474 Tam1; experiment: as above; details: 4-OH-tamoxifen in medium 1 µM; 72 h
Outline: as §1

[18] = test system: ZR-75-1 Tam1; experiment: as above; details: 4-OH-tamoxifen in medium 1 µM; 72 h
Outline: as §1

[19] = test system: ZR-75-1; experiment: as above; details: 72 h
Outline: as §1

[20] = test system: ZR-75-1 Tam2; experiment: as above; details: 4-OH-tamoxifen in medium 1 µM; 72 h
Outline: as §1

[21] = test system: T-47D Tam1; experiment: as above; details: 4-OH-tamoxifen in medium 1 µM; 72 h
Outline: as §1

[22] = test system: MCF-7 Tam1; experiment: relative IC50 (midpoint of fitted logistic curve, plateau may be below 50% inhibition; CellTiter-Glo viability); higher = less potent; details: 4-OH-tamoxifen in medium 1 µM; 72 h
Outline: as §1

Structure (SMILES)	relative IC50 [1] [nM]	relative IC50 ([2]; 4-OH-tamoxifen in medium 0 µM) [nM]	relative IC50 ([2]; 4-OH-tamoxifen in medium 1 µM) [nM]	relative IC50 [3] [nM]	relative IC50 ([4]; 4-OH-tamoxifen in medium 0 µM) [nM]	relative IC50 ([4]; 4-OH-tamoxifen in medium 1 µM) [nM]	relative IC50 ([5]; 4-OH-tamoxifen in medium 0 µM) [nM]	relative IC50 ([5]; 4-OH-tamoxifen in medium 1 µM) [nM]	relative IC50 [6] [nM]	relative IC50 [10] [nM]	relative IC50 [7] [nM]	relative IC50 ([8]; 4-OH-tamoxifen in medium 0 µM) [nM]	relative IC50 ([8]; 4-OH-tamoxifen in medium 1 µM) [nM]	relative IC50 [9] [nM]	drug sensitivity score [11]	drug sensitivity score [12]	drug sensitivity score ([13]; 4-OH-tamoxifen in medium 0 µM)	drug sensitivity score ([13]; 4-OH-tamoxifen in medium 1 µM)	drug sensitivity score [14]	drug sensitivity score ([15]; 4-OH-tamoxifen in medium 0 µM)	drug sensitivity score ([15]; 4-OH-tamoxifen in medium 1 µM)	drug sensitivity score ([16]; 4-OH-tamoxifen in medium 0 µM)	drug sensitivity score ([16]; 4-OH-tamoxifen in medium 1 µM)	drug sensitivity score [17]	drug sensitivity score [18]	drug sensitivity score ([19]; 4-OH-tamoxifen in medium 0 µM)	drug sensitivity score ([19]; 4-OH-tamoxifen in medium 1 µM)	drug sensitivity score [20]	drug sensitivity score [21]	relative IC50 [22] [nM]
Cn1cc(CNCC2CCN(c3ncc(C(=O)NO)cn3)CC2)c2ccccc21	91.3	43.5	13.2	14.9	25.4	34.7	21.6	8.56	14.5	43.9	6.19	17.8	30	20.3	1.39	8.78	15.4	21.5	20.9	16.4	15.2	17.3	24.5	21.3	10	9.45	5.44	9.02	13.5	–
Cc1c(N)nc([C@H](CC(N)=O)NC[C@H](N)C(N)=O)nc1C(=O)N[C@H](C(=O)N[C@H](C)[C@@H](O)[C@H](C)C(=O)N[C@H](C(=O)NCCc1nc(-c2nc(C(=O)NCCC[S+](C)C)cs2)cs1)[C@@H](C)O)[C@@H](OC1OC(CO)C(O)C(O)C1OC1OC(CO)C(O)C(OC(N)=O)C1O)c1cnc[nH]1 (some centres not stated) [Bleomycin]	> 10000	–	> 10000	> 10000	–	–	> 10000	> 10000	> 10000	–	–	–	> 10000	> 10000	0	0	0.51	0	0	0.0343	0.0155	0	0	0	0.117	0.615	0	0	1.38	> 10000
O=C(/C=C/c1cccc(S(=O)(=O)Nc2ccccc2)c1)NO [Belinostat  (PXD101)]	1180	795	857	870	363	554	547	354	958	1260	964	791	1200	833	2.18	7.43	12	11.9	9.18	14.7	12.7	12.8	16.8	10.5	4.54	4.2	3.84	6.02	9.66	–
Cn1c(Nc2ccc(C(F)(F)F)cc2)nc2cc(Oc3ccnc(-c4ncc(C(F)(F)F)[nH]4)c3)ccc21 [RAF265]	> 1000	–	> 1000	> 1000	> 1000	> 1000	> 1000	> 1000	> 1000	–	> 1000	> 1000	> 1000	–	0	0	0.294	0	0	0	0	0	0	0	0	0	0	0.002	8.26	> 1000

The next lines start with results.

relative IC50 [1] [nM]	relative IC50 ([2]; 4-OH-tamoxifen in medium 0 µM) [nM]	relative IC50 ([2]; 4-OH-tamoxifen in medium 1 µM) [nM]	relative IC50 [3] [nM]	relative IC50 ([4]; 4-OH-tamoxifen in medium 0 µM) [nM]	relative IC50 ([4]; 4-OH-tamoxifen in medium 1 µM) [nM]	relative IC50 ([5]; 4-OH-tamoxifen in medium 0 µM) [nM]	relative IC50 ([5]; 4-OH-tamoxifen in medium 1 µM) [nM]	relative IC50 [6] [nM]	relative IC50 [10] [nM]	Structure (SMILES)	relative IC50 [7] [nM]	relative IC50 ([8]; 4-OH-tamoxifen in medium 0 µM) [nM]	relative IC50 ([8]; 4-OH-tamoxifen in medium 1 µM) [nM]	relative IC50 [9] [nM]	drug sensitivity score [11]	drug sensitivity score [12]	drug sensitivity score ([13]; 4-OH-tamoxifen in medium 0 µM)	drug sensitivity score ([13]; 4-OH-tamoxifen in medium 1 µM)	drug sensitivity score [14]	drug sensitivity score ([15]; 4-OH-tamoxifen in medium 0 µM)	drug sensitivity score ([15]; 4-OH-tamoxifen in medium 1 µM)	drug sensitivity score ([16]; 4-OH-tamoxifen in medium 0 µM)	drug sensitivity score ([16]; 4-OH-tamoxifen in medium 1 µM)	drug sensitivity score [17]	drug sensitivity score [18]	drug sensitivity score ([19]; 4-OH-tamoxifen in medium 0 µM)	drug sensitivity score ([19]; 4-OH-tamoxifen in medium 1 µM)	drug sensitivity score [20]	drug sensitivity score [21]	relative IC50 [22] [nM]
1380	768	1530	4180	1450	1270	2640	3340	3120	1100	CCCCC(=O)OCC(=O)[C@]1(O)Cc2c(O)c3c(c(O)c2[C@@H](O[C@H]2C[C@H](NC(=O)C(F)(F)F)[C@H](O)[C@H](C)O2)C1)C(=O)c1c(OC)cccc1C3=O [Valrubicin]	1280	554	1320	1130	0.994	6.34	7.72	5.96	2.37	5.32	8.1	2.57	4.06	4.26	7.34	8.2	5.85	9.1	7.66	–
2000	3590	–	1730	4190	3250	–	2750	1920	1170	N#Cc1ccc(COC[C@H]2O[C@@H](n3c(NCc4ccc(Cl)c(Cl)c4)nc4c(N)ncnc43)[C@H](O)[C@@H]2O)cc1	3000	2070	1870	3350	0.584	2.46	1.88	1.02	3.17	1.74	2.54	0.615	4.11	3.95	2.54	4.24	4.03	2.56	5.15	–
10.4	19.9	8.93	10.2	6.59	41.2	4.12	2.25	3.5	37.2	CCNC(=O)c1noc(-c2cc(C(C)C)c(O)cc2O)c1-c1ccc(CN2CCOCC2)cc1 [NVP-AUY922]	22.5	18.6	40.4	21.1	3.94	13.5	14.3	14.1	16.8	16.7	7.64	14.7	26.5	22.9	6.14	6.75	7.06	9.04	8.46	–
1580	1230	–	18.6	1290	1640	31.3	12.4	11.7	513	C=CC(=O)Nc1cc2c(Nc3ccc(F)c(Cl)c3)ncnc2cc1OCCCN1CCOCC1 [Canertinib]	1740	2090	1510	2780	1.4	5.77	3.92	0.761	31.6	6.68	6.46	24.8	33.6	34.2	2.99	3	3.11	2.58	6.06	–
